From PubChem BioAssay AID1963826 (Molecular Pharmacology Branch, DTP, NCI, 2024)

System: 926638-142-R-J1-PDC complex spheroid viability
Experiment: Anticancer human tumor 926638-142-R-J1-PDC patient-derived endometrial carcinoma cell line growth inhibition [POLQ]
Settings: for IC50: curve of first compound; for viability, T/C: stronger effect = lower value; active = viability on the fitted dose curve at most 10% of control; inactive = the rest
How it was run: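 PDC + HUVEC + MSC complex spheroids; POLQ inhibitors ± partner drugs; top conc. at/near clinical Cmax, else 10 microM (SN-38 1 microM), half-log dilutions; 37 degrees C, 5% CO2.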
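Note: spheroids exposed to drugs for one week before readout.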
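Throughout, for viability, T/C: percent viability relative to DMSO vehicle control wells set as 100%.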

CC(=O)O[C@H]1C(=O)[C@@]2(C)[C@H]([C@H](OC(=O)c3ccccc3)[C@]3(O)C[C@H](OC(=O)[C@H](O)[C@@H](NC(=O)c4ccccc4)c4ccccc4)C(C)=C1C3(C)C)[C@]1(OC(C)=O)CO[C@@H]1C[C@@H]2O + Nc1ccc(C#CCN(C(=O)Cc2ncc(C(F)(F)F)cc2C(F)(F)F)c2ccc(F)cc2)nn1
> 3000 nM: IC50 (second compound 1 µM)
139 nM: IC50 (second compound 10 µM)
1940 nM: IC50 (second compound 3.16 µM)
433 nM: IC50 (second compound 0.0316 µM)
458 nM: IC50 (second compound 0.316 µM)
inactive: viability, T/C (second compound 0.0316 µM, first compound 0.00949 µM) 85.1% | viability, T/C (second compound 0.0316 µM, first compound 0.03 µM) 62.4% | viability, T/C (second compound 0.0316 µM, first compound 0.0949 µM) 56.9% | viability, T/C (second compound 0.0316 µM, first compound 0.3 µM) 50.7% | viability, T/C (second compound 0.0316 µM, first compound 0.949 µM) 47.9% | viability, T/C (second compound 0.0316 µM, first compound 3 µM) 48% | viability, T/C (second compound 0.1 µM, first compound 0.00949 µM) 84.3% | viability, T/C (second compound 0.1 µM, first compound 0.03 µM) 76.3% | viability, T/C (second compound 0.1 µM, first compound 0.0949 µM) 58.2% | viability, T/C (second compound 0.1 µM, first compound 0.3 µM) 69.8% | viability, T/C (second compound 0.1 µM, first compound 0.949 µM) 51% | viability, T/C (second compound 0.1 µM, first compound 3 µM) 42.9% | viability, T/C (second compound 0.316 µM, first compound 0.00949 µM) 91.4% | viability, T/C (second compound 0.316 µM, first compound 0.03 µM) 72.3% | viability, T/C (second compound 0.316 µM, first compound 0.0949 µM) 57.5% | viability, T/C (second compound 0.316 µM, first compound 0.3 µM) 47.7% | viability, T/C (second compound 0.316 µM, first compound 0.949 µM) 50.9% | viability, T/C (second compound 0.316 µM, first compound 3 µM) 45.2% | viability, T/C (second compound 1 µM, first compound 0.00949 µM) 79.3% | viability, T/C (second compound 1 µM, first compound 0.03 µM) 71.3% | viability, T/C (second compound 1 µM, first compound 0.0949 µM) 57% | viability, T/C (second compound 1 µM, first compound 0.3 µM) 51.8% | viability, T/C (second compound 1 µM, first compound 0.949 µM) 50.7% | viability, T/C (second compound 1 µM, first compound 3 µM) 50.8% | viability, T/C (second compound 3.16 µM, first compound 0.00949 µM) 82.7% | viability, T/C (second compound 3.16 µM, first compound 0.03 µM) 65% | viability, T/C (second compound 3.16 µM, first compound 0.0949 µM) 53.6% | viability, T/C (second compound 3.16 µM, first compound 0.3 µM) 53.1% | viability, T/C (second compound 3.16 µM, first compound 0.949 µM) 52.8% | viability, T/C (second compound 3.16 µM, first compound 3 µM) 47.3% | viability, T/C (second compound 10 µM, first compound 0.00949 µM) 76.3% | viability, T/C (second compound 10 µM, first compound 0.03 µM) 60.7% | viability, T/C (second compound 10 µM, first compound 0.0949 µM) 50.4% | viability, T/C (second compound 10 µM, first compound 0.3 µM) 49% | viability, T/C (second compound 10 µM, first compound 0.949 µM) 46.9% | viability, T/C (second compound 10 µM, first compound 3 µM) 51.8%
1300 nM: IC50 (second compound 0.1 µM)

CCc1c2c(nc3ccc(O)cc13)-c1cc3c(c(=O)n1C2)COC(=O)[C@]3(O)CC + Nc1ccc(C#CCN(C(=O)Cc2ncc(C(F)(F)F)cc2C(F)(F)F)c2ccc(F)cc2)nn1
7.09 nM: IC50 (second compound 3.16 µM)
8.14 nM: IC50 (second compound 0.0316 µM)
active: viability, T/C (second compound 3.16 µM, first compound 1 µM) 7.92%
8.56 nM: IC50 (second compound 10 µM)
10.3 nM: IC50 (second compound 0.1 µM)
11.6 nM: IC50 (second compound 1 µM)
13.7 nM: IC50 (second compound 0.316 µM)
inactive: viability, T/C (second compound 0.0316 µM, first compound 0.00316 µM) 54.4% | viability, T/C (second compound 0.0316 µM, first compound 0.01 µM) 52.5% | viability, T/C (second compound 0.0316 µM, first compound 0.0316 µM) 32.8% | viability, T/C (second compound 0.0316 µM, first compound 0.1 µM) 27.6% | viability, T/C (second compound 0.0316 µM, first compound 0.316 µM) 15.2% | viability, T/C (second compound 0.0316 µM, first compound 1 µM) 11.2% | viability, T/C (second compound 0.1 µM, first compound 0.00316 µM) 67.3% | viability, T/C (second compound 0.1 µM, first compound 0.01 µM) 49.8% | viability, T/C (second compound 0.1 µM, first compound 0.0316 µM) 36.5% | viability, T/C (second compound 0.1 µM, first compound 0.1 µM) 24.9% | viability, T/C (second compound 0.1 µM, first compound 0.316 µM) 17.3% | viability, T/C (second compound 0.1 µM, first compound 1 µM) 10.2% | viability, T/C (second compound 0.316 µM, first compound 0.00316 µM) 69.9% | viability, T/C (second compound 0.316 µM, first compound 0.01 µM) 56.9% | viability, T/C (second compound 0.316 µM, first compound 0.0316 µM) 33.7% | viability, T/C (second compound 0.316 µM, first compound 0.1 µM) 24.6% | viability, T/C (second compound 0.316 µM, first compound 0.316 µM) 14.9% | viability, T/C (second compound 0.316 µM, first compound 1 µM) 10.4% | viability, T/C (second compound 1 µM, first compound 0.00316 µM) 60% | viability, T/C (second compound 1 µM, first compound 0.01 µM) 53.9% | viability, T/C (second compound 1 µM, first compound 0.0316 µM) 35.4% | viability, T/C (second compound 1 µM, first compound 0.1 µM) 24.6% | viability, T/C (second compound 1 µM, first compound 0.316 µM) 15.4% | viability, T/C (second compound 1 µM, first compound 1 µM) 10.5% | viability, T/C (second compound 3.16 µM, first compound 0.00316 µM) 60.3% | viability, T/C (second compound 3.16 µM, first compound 0.01 µM) 46.7% | viability, T/C (second compound 3.16 µM, first compound 0.0316 µM) 30.6% | viability, T/C (second compound 3.16 µM, first compound 0.1 µM) 20.6% | viability, T/C (second compound 3.16 µM, first compound 0.316 µM) 17.6% | viability, T/C (second compound 10 µM, first compound 0.00316 µM) 64.2% | viability, T/C (second compound 10 µM, first compound 0.01 µM) 47.4% | viability, T/C (second compound 10 µM, first compound 0.0316 µM) 34.5% | viability, T/C (second compound 10 µM, first compound 0.1 µM) 23.1% | viability, T/C (second compound 10 µM, first compound 0.316 µM) 15.3% | viability, T/C (second compound 10 µM, first compound 1 µM) 10.2%
